# Data from patent US4542021A, “Antitumor compositions for non-injection administration” (Yamasa Shoyu Kabushiki Kaisha, priority 1978, dated 1985).
# Assays:
# [1] = system: B16 melanoma; test: Effectiveness against B16 melanoma (oral, 3 times a week); assay type: in vivo, BDF1 mice; set-up: Mean survival time (MST ± SE): unit not given here
# Experimental: The B16 melanoma cells (1×10^6 cells) were implanted to the right side-abdominal hypoderms of BDF1 mice (male, 18 to 22 g). From the 13th day after the implantation to death the compounds to be tested were administered orally 3 times a week. The compounds to be tested were dissolved in a phosphate-buffered salt solution (PBS) containing 0.5% carboxymethyl-cellulose to a suitable concentration, and given to the mice at a dose rate of 0.1 ml per 10 g of each mouse's body weight. The increases in life span (%ILS) were calculated in accordance with the same formula as described in Test Example 1.
# [2] = system: L1210 leukemia; test: Therapeutic test on L1210 leukemia (oral, once a day); assay type: in vivo, BDF1 mice; details: Mus musculus, oral, read-out: % ILS (increase in life span); for ILS at 100 mg/kg/day / ILS at 200 mg/kg/day / ILS at 400 mg/kg/day: L1210, 720 h, > means some mice survived the test period (30 days); for ILS at 50 mg/kg/day / ILS at 12.5 mg/kg/day / ILS at 25 mg/kg/day / ILS at 6.25 mg/kg/day: L1210
# Experimental: The L1210 leukemic cell suspension (1×10^5 cells/0.2 ml) was implanted intraperitoneally in BDF1 mice (males, 18 to 22 g, females, 16 to 20 g) (7 mice per group). From 24 hours after the implantation to the 5th day thereafter, the predetermined doses of the compounds to be tested were orally administered to the mice consecutively once a day. The compounds to be tested were dissolved or suspended in a phosphate-bufferedsalt solution (PBS) containing 0.5% carboxymethylcellulose, and given at a dose rate of 0.1 ml per 10 g of each mouse's body weight. To a control group, only the same solvent as used for the dissolution of the compounds to be tested was administered in the same way. The mean survival times (MST) for each group were calculated, and the corresponding increase in life span (%ILS) was obtained in accordance with the following formula, the results of which are shown in Table 1. [formula]
# [3] = Acute toxicity test, oral (Test Example 5); set-up: species or system ICR-JCL mice; details: mouse, in vivo, neutralized ester, male mice, 14th day
# Experimental: An ara-CMP ester was neutralized and dissolved in saline containing 0.5% of carboxymethylcellulose, and the resulting solution was orally administered to ICR-JCL mice (males, 24 to 26 g) in a dose of 0.2 ml per 10 g of each mouse's body weight.
# [4] = system: L1210 leukemic cells; test: Experimental tumor proliferation model in the lymph nodes, once a day for 6 days; assay type: in vivo, BDF1 mice
# Experimental: (§1) L1210 leukemic cells (1×10^6 cells/0.05 ml) were implanted to the right inner-thigh hypoderms of BDF1 mice (males, 18 to 22 g). From one day after the transplantation, the compounds to be tested were administered intraperitoneally or orally to the mice once a day consecutively for 6 days. The compounds being tested were dissolved in a phosphate-buffered salt solution (PBS) containing 0.5% carboxymethylcellulose to a suitable concentration, and administered to the mice at a dose rate of 0.1 ml per 10 g of each mouse's body weight. The increases in life span (%ILS) were calculated similarly as in Test Example 1.
# [5] = system: L1210 leukemic cells; test: Experimental tumor proliferation model in the lymph nodes, single administration on sixth day; assay type: in vivo, BDF1 mice; details: po, once on sixth day
# Experimental: as §1
# Furthermore, in a similar manner, each of the test compounds was administered only once on the sixth day after implantation.
# [6] = Acute toxicity test, oral (Test Example 4); set-up: species or system ICR-JCL mice; details: mouse, in vivo, male mice, observed 7 days, reliability limit 95% in parentheses
# Experimental: The C18-ara-CMP ester was dissolved in saline containing 0.5% carboxymethylcellulose, and given orally to ICR-JCL mice (males, 24 to 26 g) at a dose rate of 0.2 ml per 10 g of each mouse's body weight. […] The LD50 value was;
# [7] = Acute toxicity test, intraperitoneal (Test Example 4); set-up: species or system ICR-JCL mice; details: mouse, in vivo; ip, male mice, 7th day; reliability limit 95% in parentheses
# Experimental: The C18-ara-CMP ester dissolved in saline was administered intraperitoneally to ICR-JCL mice (males, 24 to 26 g) at a dose rate of 0.2 ml per 10 g of each mouse's body weight. The LD50 value obtained on the 7th day was;
# [8] = 50 mg/kg, * level of significance at 0.05% or lower
SMILES,ILS at 100 mg/kg/day [2] [%],ILS at 200 mg/kg/day [2] [%],ILS at 400 mg/kg/day [2] [%],ILS at 50 mg/kg/day [2] [%],ILS at 12.5 mg/kg/day [2] [%],ILS at 25 mg/kg/day [2] [%],LD50 at 336 h [3] [mg/kg],ILS at 6.25 mg/kg/day [2] [%],other results
O=c1[nH]cc(F)c(=O)[nH]1 [5-fluorouracil],,,,,,,,,"Increase in life span (% ILS) ([1]; 25 mg/kg): 0%; Mean survival time (MST ± SE) ([1]; 25 mg/kg): 22.0 ± 1.45; Mean survival time (MST ± SE) ([1]; 50 mg/kg): 25.0 ± 2.26; Increase in life span (% ILS) [1, 8]: 14%; Increase in life span (% ILS) ([1]; 100 mg/kg): -11%; Mean survival time (MST ± SE) ([1]; 100 mg/kg): 19.6 ± 0.98"
"CCCCCCCCCCCCCCOP(=O)(O)OC[C@H]1O[C@@H](n2ccc(N)nc2=O)[C@@H](O)[C@@H]1O [C14-ara-CMP ester, ara-CMP-tetradecyl ester]",88,105,134,62,,,,,
"CCCCCCCCCCCCCCCOP(=O)(O)OC[C@H]1O[C@@H](n2ccc(N)nc2=O)[C@@H](O)[C@@H]1O [C15-ara-CMP ester, ara-CMP-pentadecyl ester]",95,135,,70,,,,,
"CCCCCCCCCCCCCCCCOP(=O)(O)OC[C@H]1O[C@@H](n2ccc(N)nc2=O)[C@@H](O)[C@@H]1O [C16-ara-CMP ester, ara-CMP-cetyl ester]",88,137,> 227,73,19,30,2190,,
"CCCCCCCCCCCCCCCCCOP(=O)(O)OC[C@H]1O[C@@H](n2ccc(N)nc2=O)[C@@H](O)[C@@H]1O [C17-ara-CMP ester, ara-CMP-heptadecyl ester]",123,> 154,-15,87,32,52,,11,
"CCCCCCCC/C=C\CCCCCCCCOP(=O)(O)OC[C@H]1O[C@@H](n2ccc(N)nc2=O)[C@@H](O)[C@@H]1O [C18-1-ara-CMP ester, ara-CMP-oleyl ester]",109,120,> 159,81,39,54,3750,20,
"CCCCCCCCCCCCCCCCCCOP(=O)(O)OC[C@H]1O[C@@H](n2ccc(N)nc2=O)[C@@H](O)[C@@H]1O [C18-ara-CMP ester, ara-CMP-stearyl ester]",> 200,53,-7,114,52,69,1050,46,"Mean survival time (MST ± SE) ([1]; 50 mg/kg): 30.0 ± 1.30; Increase in life span (% ILS) [1, 8]: 36%; Increase in life span (% ILS) ([1]; 100 mg/kg): 17%; Mean survival time (MST ± SE) ([1]; 100 mg/kg): 25.8 ± 1.98; Increase in life span (% ILS) ([1]; 200 mg/kg): 22%; Mean survival time (MST ± SE) ([1]; 200 mg/kg): 26.8 ± 2.20; Increase in life span (% ILS) ([4]; ip, 25 mg/kg/day): 152%; Mean survival time (MST ± SE) ([4]; ip, 25 mg/kg/day): 17.4 ± 0.40; Increase in life span (% ILS) ([4]; ip, 50 mg/kg/day): 193%; Mean survival time (MST ± SE) ([4]; ip, 50 mg/kg/day): 20.2 ± 0.53; Increase in life span (% ILS) ([4]; po, 50 mg/kg/day): 165%; Mean survival time (MST ± SE) ([4]; po, 50 mg/kg/day): 18.3 ± 0.62; Increase in life span (% ILS) ([4]; po, 100 mg/kg/day): 188%; Mean survival time (MST ± SE) ([4]; po, 100 mg/kg/day): 19.9 ± 0.48; Increase in life span (% ILS) ([5]; 250 mg/kg): 92%; Mean survival time (MST ± SE) ([5]; 250 mg/kg): 14.0 ± 0.53; Increase in life span (% ILS) ([5]; 500 mg/kg): 137%; Mean survival time (MST ± SE) ([5]; 500 mg/kg): 17.3 ± 0.49; LD50 at 168 h [6]: 1400 mg/kg; LD50 at 168 h [7]: 137 mg/kg"
